Reference: PMC9154192 (PLoS Biology, 2022)

Columns and labels:
M. tuberculosis H37Rv = assay: microbe, parasite or virus in culture; format: cell-based, Mycobacterium tuberculosis; details: for MIC: Mycobacterium tuberculosis, H37RV, read-out: MIC
M. abscessus = assay: microbe, parasite or virus in culture; format: cell-based, Mycobacterium abscessus; details: Mycobacteroides abscessus
M. arupense = assay: microbe, parasite or virus in culture; format: cell-based, Mycobacterium arupense; details: Mycolicibacter arupensis
M. avium = assay: microbe, parasite or virus in culture; format: cell-based; details: Mycobacterium avium
M. bolletii = assay: microbe, parasite or virus in culture; format: cell-based, Mycobacterium bolletii; details: Mycobacteroides abscessus
M. chitae = assay: microbe, parasite or virus in culture; format: cell-based, Mycobacterium chitae; details: Mycolicibacterium chitae
M. colombiense = assay: microbe, parasite or virus in culture; format: cell-based; details: Mycobacterium colombiense
M. goodie = assay: microbe, parasite or virus in culture; format: cell-based; details: Mycobacterium
M. gordonae = assay: microbe, parasite or virus in culture; format: cell-based; details: Mycobacterium gordonae
M. intracellulare = assay: microbe, parasite or virus in culture; format: cell-based; details: Mycobacterium intracellulare
M. neoaurum = assay: microbe, parasite or virus in culture; format: cell-based, Mycobacterium neoaurum; details: Mycolicibacterium neoaurum
M. phlei = assay: microbe, parasite or virus in culture; format: cell-based, Mycobacterium phlei; details: Mycolicibacterium phlei
M. phocaicum = assay: microbe, parasite or virus in culture; format: cell-based, Mycobacterium phocaicum; details: Mycolicibacterium phocaicum
M. szulgai = assay: microbe, parasite or virus in culture; format: cell-based; details: Mycobacterium szulgai
Acinetobacter baumannii = assay: Broth dilution MIC (CLSI); format: cell-based; details: read-out: MIC
Excerpt: (§1) Bacteria (Acinetobacter baumannii NCCP 14782, Citrobacter freundii NCCP 14766, Enterobacter aerogenes NCCP 14761, Escherichia coli NCCP 14762, Escherichia coli O157 NCCP 14541, Klebsiella pneumoniae NCCP 14764, Proteus mirabilis NCCP 14763, Proteus vulgaris NCCP 14765, Pseudomonas aeruginosa NCCP 14781, Salmonella Enteritidis NCCP 14771, Salmonella Paratyphi A NCCP 14759, Salmonella Typhimurium NCCP 16207, Serratia marcescens NCCP 14770, Shigella boydii NCCP 14745, Shigella dysenteriae NCCP 14746, Shigella flexneri NCCP 14744, Shigella sonnei NCCP 14773, Bacillus subtilis NCCP 11101, Corynebacterium diphtheriae NCCP 10353, Staphylococcus aureus MSSA NCCP 14780, Staphylococcus aureus MRSA NCCP 14769, Staphylococcus epidermidis NCCP 14768, Streptococcus pneumoniae NCCP 14774) and fungi (Aspergillus fumigatus NCCP 22454, Candida albicans NCCP 32557, Cryptococcus neoformans NCCP 32559, Microsporum canis NCCP 22454, Rhizopus oryzae NCCP 22458, Saccharomyces cerevisiae NCCP 32558, Trichophyton rubrum NCCP 22456) strains were obtained from the National Culture Collection for Pathogens (NCCP) (Chungbuk, Korea). The MIC of each agent was determined following the Clinical and Laboratory Standards Institute (CLSI).[40]

Aspergillus fumigatus = assay: Broth dilution MIC (CLSI); format: cell-based; details: read-out: MIC
Excerpt: as §1

Bacillus subtilis = assay: Broth dilution MIC (CLSI); format: cell-based; details: read-out: MIC
Excerpt: as §1

Candida albicans = assay: Broth dilution MIC (CLSI); format: cell-based; details: read-out: MIC
Excerpt: as §1

Citrobacter freundii = assay: Broth dilution MIC (CLSI); format: cell-based; details: read-out: MIC
Excerpt: as §1

[1] = system: Corynebacterium diphtheriae; assay: Broth dilution MIC (CLSI); format: cell-based; details: read-out: MIC
Excerpt: as §1

Cryptococcus neoformans = assay: Broth dilution MIC (CLSI); format: cell-based; details: read-out: MIC
Excerpt: as §1

Enterobacter aerogenes = assay: Broth dilution MIC (CLSI); format: cell-based; details: Klebsiella aerogenes; Enterobacter aerogenes; read-out: MIC
Excerpt: as §1

Escherichia coli O157 = assay: Broth dilution MIC (CLSI); format: cell-based; details: read-out: MIC
Excerpt: as §1

Escherichia coli = assay: Broth dilution MIC (CLSI); format: cell-based; details: read-out: MIC
Excerpt: as §1

Klebsiella pneumoniae = assay: Broth dilution MIC (CLSI); format: cell-based; details: read-out: MIC
Excerpt: as §1

Microsporum canis = assay: Broth dilution MIC (CLSI); format: cell-based; details: read-out: MIC
Excerpt: as §1

Proteus mirabilis = assay: Broth dilution MIC (CLSI); format: cell-based; details: read-out: MIC
Excerpt: as §1

Proteus vulgaris = assay: Broth dilution MIC (CLSI); format: cell-based; details: read-out: MIC
Excerpt: as §1

Pseudomonas aeruginosa = assay: Broth dilution MIC (CLSI); format: cell-based; details: read-out: MIC
Excerpt: as §1

Rhizopus oryzae = assay: Broth dilution MIC (CLSI); format: cell-based; details: Rhizopus arrhizus; Rhizopus oryzae; read-out: MIC
Excerpt: as §1

Saccharomyces cerevisiae = assay: Broth dilution MIC (CLSI); format: cell-based; details: read-out: MIC
Excerpt: as §1

Salmonella Enteritidis = assay: Broth dilution MIC (CLSI); format: cell-based; details: Salmonella enterica; Salmonella Enteritidis; read-out: MIC
Excerpt: as §1

Salmonella Paratyphi A = assay: Broth dilution MIC (CLSI); format: cell-based; details: Salmonella enterica; Salmonella Paratyphi A; read-out: MIC
Excerpt: as §1

Salmonella Typhimurium = assay: Broth dilution MIC (CLSI); format: cell-based; details: Salmonella enterica; Salmonella Typhimurium; read-out: MIC
Excerpt: as §1

Serratia marcescens = assay: Broth dilution MIC (CLSI); format: cell-based; details: read-out: MIC
Excerpt: as §1

Shigella boydii = assay: Broth dilution MIC (CLSI); format: cell-based; details: read-out: MIC
Excerpt: as §1

Shigella dysenteriae = assay: Broth dilution MIC (CLSI); format: cell-based; details: read-out: MIC
Excerpt: as §1

Shigella flexneri = assay: Broth dilution MIC (CLSI); format: cell-based; details: read-out: MIC
Excerpt: as §1

Shigella sonnei = assay: Broth dilution MIC (CLSI); format: cell-based; details: read-out: MIC
Excerpt: as §1

[2] = system: Staphylococcus aureus, MRSA; assay: Broth dilution MIC (CLSI); format: cell-based; details: read-out: MIC
Excerpt: as §1

[3] = system: Staphylococcus aureus, MSSA; assay: Broth dilution MIC (CLSI); format: cell-based; details: read-out: MIC
Excerpt: as §1

[4] = system: Staphylococcus epidermidis; assay: Broth dilution MIC (CLSI); format: cell-based; details: read-out: MIC
Excerpt: as §1

Streptococcus pneumoniae = assay: Broth dilution MIC (CLSI); format: cell-based; details: read-out: MIC
Excerpt: as §1

Trichophyton rubrum = assay: Broth dilution MIC (CLSI); format: cell-based; details: read-out: MIC
Excerpt: as §1

NNC(=O)c1ccncc1 [INH, isoniazid, reference compound]
0.4 µg/mL: MIC (M. tuberculosis H37Rv)
25 µg/mL: MIC (M. avium) | MIC (M. goodie) | MIC (M. intracellulare)
12.5 µg/mL: MIC (M. chitae) | MIC (M. colombiense)
3.1 µg/mL: MIC (M. neoaurum)
50 µg/mL: MIC (M. arupense)
1.6 µg/mL: MIC (M. szulgai)
> 100 µg/mL: MIC (M. abscessus) | MIC (M. bolletii) | MIC (M. gordonae) | MIC (M. phlei) | MIC (M. phocaicum) | MIC (Acinetobacter baumannii) | MIC (Aspergillus fumigatus) | MIC (Bacillus subtilis) | MIC (Candida albicans) | MIC (Citrobacter freundii) | MIC [1] | MIC (Cryptococcus neoformans) | MIC (Enterobacter aerogenes) | MIC (Escherichia coli O157) | MIC (Escherichia coli) | MIC (Klebsiella pneumoniae) | MIC (Microsporum canis) | MIC (Proteus mirabilis) | MIC (Proteus vulgaris) | MIC (Pseudomonas aeruginosa) | MIC (Rhizopus oryzae) | MIC (Saccharomyces cerevisiae) | MIC (Salmonella Enteritidis) | MIC (Salmonella Paratyphi A) | MIC (Salmonella Typhimurium) | MIC (Serratia marcescens) | MIC (Shigella boydii) | MIC (Shigella dysenteriae) | MIC (Shigella flexneri) | MIC (Shigella sonnei) | MIC [2] | MIC [3] | MIC [4] | MIC (Streptococcus pneumoniae) | MIC (Trichophyton rubrum)

COC(=O)[C@@H]1CCC(=O)N1Cc1cc2ccc(OC)cc2c2cc(OC)c(OC)cc12 [PP1S, (S)-N-[(2,3,6-Trimethoxy-10-phenanthryl)methyl]-pyroglutamic acid methyl ester]
> 100 µg/mL: MIC (M. abscessus) | MIC (M. arupense) | MIC (M. avium) | MIC (M. bolletii) | MIC (M. chitae) | MIC (M. colombiense) | MIC (M. goodie) | MIC (M. gordonae) | MIC (M. intracellulare) | MIC (M. neoaurum) | MIC (M. phlei) | MIC (M. phocaicum) | MIC (M. szulgai) | MIC (Acinetobacter baumannii) | MIC (Aspergillus fumigatus) | MIC (Bacillus subtilis) | MIC (Candida albicans) | MIC (Citrobacter freundii) | MIC [1] | MIC (Cryptococcus neoformans) | MIC (Enterobacter aerogenes) | MIC (Escherichia coli O157) | MIC (Escherichia coli) | MIC (Klebsiella pneumoniae) | MIC (Microsporum canis) | MIC (Proteus mirabilis) | MIC (Proteus vulgaris) | MIC (Pseudomonas aeruginosa) | MIC (Rhizopus oryzae) | MIC (Saccharomyces cerevisiae) | MIC (Salmonella Enteritidis) | MIC (Salmonella Paratyphi A) | MIC (Salmonella Typhimurium) | MIC (Serratia marcescens) | MIC (Shigella boydii) | MIC (Shigella dysenteriae) | MIC (Shigella flexneri) | MIC (Shigella sonnei) | MIC [2] | MIC [3] | MIC [4] | MIC (Streptococcus pneumoniae) | MIC (Trichophyton rubrum)
1.6 µg/mL: MIC (M. tuberculosis H37Rv)
>62.5: SI (CC50/MIC) (M. tuberculosis H37Rv; ratio of CC50 for L929 fibroblasts to MIC for strain H37Rv)
had in vitro antitubercular activities: in vitro antitubercular activities (S-form vs R-form) (M. tuberculosis H37Rv)
